pIC50: −log10 of the molar value.
Experiments:
[1] = target: T1, MMP-2CD (gelatinase A catalytic domain) (Homo sapiens, UniProt P08253, DEL220-393); experiment: Thiopeptolide substrate assay, gelatinase A catalytic domain; type: biochemical; conditions: for inhibition at 10 µM: read-out: % inhibition of the enzyme MMP-2CD; for pIC50: thiopeptolide substrate, catalytic domain
T1 construct: Experiments were carried out with the catalytic domains of the proteinases
Experimental: (§1) Experiments were carried out with the catalytic domains of the proteinases. […] IC50 values were determined using a thiopeptolide substrate, Ac-Pro-Leu-Gly-thioester-Leu-Leu-Gly-OEt (ye Q. -Z., Johnson L. L., Hupe D. J., and Baragi V., “Purification and Characterization of the Human Stromelysin Catalytic Domain Expressed in Escherichia coli,” Biochemistry, 1992;31:11231-11235; ye Q. -Z., Johnson L. L., yu A. E., and Hupe D., “Reconstructed 19 kDa catalytic domain of gelatinase A is an active proteinase,” Biochemistry, 1995;34:4702-4708.) MMP-13CD was expressed from a synthetic gene and purified from Escherichia coli cell culture according to a previously described method (ye Q. -Z., Johnson L. L., and Baragi V., “Gene synthesis and expression in E. coli for PUMP, a human matrix metalloproteinase,” Biochemical and Biophysical Research Communications, 1992;186:143-149.)

[2] = target: T2, MMP-13CD (collagenase-3 catalytic domain) (Homo sapiens, UniProt P45452); experiment: Thiopeptolide substrate assay, collagenase-3 catalytic domain; type: biochemical; conditions: for inhibition at 10 µM: read-out: % inhibition of the enzyme MMP-13CD; for pIC50: thiopeptolide substrate, catalytic domain
T2 construct: Experiments were carried out with the catalytic domains of the proteinases; made in house; host or cells: Escherichia coli
Experimental: as §1

[3] = target: T3, MMP-3CD (stromelysin-1 catalytic domain) (Homo sapiens, UniProt P08254); experiment: Thiopeptolide substrate assay, stromelysin-1 catalytic domain; type: biochemical; conditions: for inhibition at 10 µM: read-out: % inhibition of the enzyme MMP-3CD; for pIC50: thiopeptolide substrate, catalytic domain
T3 construct: Experiments were carried out with the catalytic domains of the proteinases; made in house; host or cells: Escherichia coli
Experimental: as §1

[4] = 10 μM concentration of inhibitor (footnote a, Examples 8 through 25)

T1 sequence (P08253 with tags, fused parts or gaps DEL220-393): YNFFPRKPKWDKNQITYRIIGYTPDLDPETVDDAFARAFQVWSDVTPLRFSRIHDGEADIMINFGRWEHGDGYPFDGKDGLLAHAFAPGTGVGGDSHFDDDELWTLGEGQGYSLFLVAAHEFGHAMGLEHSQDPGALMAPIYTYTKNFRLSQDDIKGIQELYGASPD
T3 sequence (P08254 100-272 limits assumed): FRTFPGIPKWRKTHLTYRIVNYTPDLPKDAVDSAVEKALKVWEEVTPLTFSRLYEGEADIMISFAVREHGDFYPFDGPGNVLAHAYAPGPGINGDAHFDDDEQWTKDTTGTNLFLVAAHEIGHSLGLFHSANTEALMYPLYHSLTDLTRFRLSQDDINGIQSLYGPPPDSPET

## CCCCCCCCC(=O)Nc1ccc(C(=O)CCC(=O)O)cc1 [Example 9, 4-[4-(Nonanoylamino)-phenyl]-4-oxo-butyric acid]
[1]; [4]
  inhibition at 10 µM: 85%
[2]; [4]
  inhibition at 10 µM: 3%
[3]; [4]
  inhibition at 10 µM: 75%

## O=C(O)CCC(=O)c1ccc(NC(=O)c2ccco2)cc1 [Example 32, 4-[4-(2-Furoylamino)-phenyl]-4-oxo-butyric acid]
[1]
  pIC50: 6.04
[3]
  pIC50: 4.72

## COc1ccc(C(=O)Nc2ccc(C(=O)CCC(=O)O)cc2)cc1 [Example 27, 4-[4-(4-Methoxy-benzoylamino)-phenyl]-4-oxo-butyric acid]
[1]
  pIC50: 7.15
[2]
  pIC50: 5.01
[3]
  pIC50: 6.47

## CCCCCCCCCC(=O)Nc1ccc(C(=O)CCC(=O)O)cc1 [Example 23]
[1]; [4]
  % inhibition of the enzyme MMP-2CD: 54%
[2]; [4]
  % inhibition of the enzyme MMP-13CD: 0%
[3]; [4]
  % inhibition of the enzyme MMP-3CD: 39%

## Cc1ccc(C(=O)Nc2ccc(C(=O)CCC(=O)O)cc2)cc1 [Example 1, 4-[4-(4-Methyl-benzoylamino)-phenyl]-4-oxo-butyric acid]
[1]
  pIC50: 6.66
[2]
  pIC50: 5.24
[3]
  pIC50: 5.81

## O=C(O)CCC(=O)c1ccc(NC(=O)c2cccc([N+](=O)[O-])c2)cc1 [Example 21, 4-[4-(3-Nitro-benzoylamino)-phenyl]-4-oxo-butyric acid]
[1]; [4]
  inhibition at 10 µM: 78%
[2]; [4]
  inhibition at 10 µM: 8%
[3]; [4]
  inhibition at 10 µM: 23%

## O=C(O)CCC(=O)c1ccc(NC(=O)C2CCCCC2)cc1 [Example 7, 4-[4-(Cyclohexane-carbonyllamino)-phenyl]-4-oxo-butyric acid]
other
  melting point: 195 to 198 °C
[3]
  pIC50: 4.70

## O=C(O)CCC(=O)Nc1ccc(C(=O)CCC(=O)O)cc1 [Example 35, 4-[4-(3—Carboxy-propionylamino)-phenyl]-4-oxo-butyric acid]
[1]
  pIC50: 4.42
[3]
  pIC50: 4.89

## O=C(O)CCC(=O)c1ccc(NC(=O)Cc2ccccc2)cc1 [Example 33, 4—oxo-4-[4-(phenyl-acetylamino)-phenyl]-butyric acid]
[1]
  pIC50: 4.28
[3]
  pIC50: 4.62

## 4-[4-(Benzoylamino)-phenyl]-4-oxo-butyric acid [Example 28]
[1]
  pIC50: 6.96
[2]
  pIC50: 4.77
[3]
  pIC50: 6.26

## CCCCCCCC(=O)Nc1ccc(C(=O)CCC(=O)O)cc1 [Example 10, 4-[4-(Octanoylamino)-phenyl]-4-oxo-butyric acid]
[1]; [4]
  inhibition at 10 µM: 79%
[2]; [4]
  inhibition at 10 µM: 8%
[3]; [4]
  inhibition at 10 µM: 66%

## O=C(O)CCC(=O)c1ccc(NC(=O)CCCc2ccc(Br)cc2)cc1 [Example 14, 4-{4-[4-(4-Bromo-phenyl)-butyrylamino]-phenyl}-4-oxo-butyric acid]
[1]; [4]
  inhibition at 10 µM: 26%
[2]; [4]
  inhibition at 10 µM: 7%
[3]; [4]
  inhibition at 10 µM: 48%

## O=C(O)CCC(=O)c1ccc(NC(=O)c2ccc(Cl)cc2)cc1 [Example 26, 4-[4-(4—Chloro-benzoylamino)-phenl]-4-oxo-butyric acid]
[1]
  pIC50: 6.92
[2]
  pIC50: 4.62
[3]
  pIC50: 6.09

## O=C(O)CCC(=O)c1ccc(NC(=O)c2ccc(F)cc2F)cc1 [Example 30, 4-[4-(2,4-Difluoro-benzoylamino)-phenyl]-4-oxo-butyric acid]
[1]
  pIC50: 6.03
[3]
  pIC50: 5.30

## O=C(O)CCC(=O)c1ccc(NC(=O)c2ccc(F)cc2)cc1 [Example 6, 4-[4-(4-Fluoro-benzoylamino)-phenyl]-4-oxo-butyric acid]
other
  melting point: 253 to 255 °C
[1]
  pIC50: 5.77
[2]
  pIC50: 4.07
[3]
  pIC50: 5.55

## CCCC(=O)Nc1ccc(C(=O)CCC(=O)O)cc1 [Example 22, 4-[4-(Butyrylamino)-phenyl]-4-oxo-butyric acid]
[1]; [4]
  inhibition at 10 µM: 62%
[2]; [4]
  inhibition at 10 µM: 0%
[3]; [4]
  inhibition at 10 µM: 35%

## CCC(=O)Nc1ccc(C(=O)CCC(=O)O)cc1 [Example 11, 4—oxo-4-[4-(propionylamino)-phenyl]-butyric acid]
[1]; [4]
  inhibition at 10 µM: 46%
[2]; [4]
  inhibition at 10 µM: 9%
[3]; [4]
  inhibition at 10 µM: 21%

## CCc1ccc(C(=O)Nc2ccc(C(=O)CCC(=O)O)cc2)cc1 [Example 16, 4-[4-(4-Ethyl-benzoylamino)-phenyl]-4-oxo-butyric acid]
[1]; [4]
  inhibition at 10 µM: 97%
[2]; [4]
  inhibition at 10 µM: 60%
[3]; [4]
  inhibition at 10 µM: 85%

## COc1ccccc1C(=O)Nc1ccc(C(=O)CCC(=O)O)cc1 [Example 25, 4-[4-(2-Methoxy-benzoylamino)-phenyl]-4-oxo-butyric acid]
[1]; [4]
  inhibition at 10 µM: 18%
[2]; [4]
  inhibition at 10 µM: 0%
[3]; [4]
  inhibition at 10 µM: 13%

## O=C(O)CCC(=O)c1ccc(NC(=O)CCc2ccccc2)cc1 [Example 34, 4—oxo-4-[4-(3-phenyl-propionylamino)-phenyl]-butyric acid]
[3]
  pIC50: 5.18

## O=C(O)CCC(=O)c1ccc(NC(=O)c2ccc(Cl)c([N+](=O)[O-])c2)cc1 [Example 18, 4-[4-(4—Chloro-3-nitro-benzoylamino)-phenyl]-4-oxo-butyric acid]
[1]; [4]
  inhibition at 10 µM: 82%
[2]; [4]
  inhibition at 10 µM: 16%
[3]; [4]
  inhibition at 10 µM: 38%

## O=C(O)CCC(=O)c1ccc(NC(=O)c2cccnc2)cc1 [Example 8, 4-[4-(Pyridin-3-yl-carbonylamino)-phenyl]-4-oxo-butyric acid]
[1]; [4]
  inhibition at 10 µM: 15%
[2]; [4]
  inhibition at 10 µM: 0%
[3]; [4]
  inhibition at 10 µM: 3%

## CCCCC(=O)Nc1ccc(C(=O)CCC(=O)O)cc1 [Example 3, 4—oxo-4-(4-pentanoylamino-phenyl)-butyric acid]
other
  melting point: 153 to 155 °C
[1]
  pIC50: 5.02
[3]
  pIC50: 5.09

## O=C(O)CCC(=O)c1ccc(NC(=O)c2cccs2)cc1 [Example 31, 4—oxo-4-[4-(thiophen-2-yl-carbonylamino)-phenyl]-butyric acid]
[1]
  pIC50: 6.89
[2]
  pIC50: 4.72
[3]
  pIC50: 5.77

## CCCCCCC(=O)Nc1ccc(C(=O)CCC(=O)O)cc1 [Example 15, 4-[4-(Heptanoylamino)-phenyl]-4-oxo-butyric acid]
[1]; [4]
  inhibition at 10 µM: 83%
[2]; [4]
  inhibition at 10 µM: 11%
[3]; [4]
  inhibition at 10 µM: 70%

## COc1cccc(C(=O)Nc2ccc(C(=O)CCC(=O)O)cc2)c1 [Example 12, 4-[4-(3-Methoxy-benzoylamino)-phenyl]-4-oxo-butyric acid]
[1]; [4]
  inhibition at 10 µM: 75%
[2]; [4]
  inhibition at 10 µM: 11%
[3]; [4]
  inhibition at 10 µM: 31%

## 4-[4-(Carboxy-acetylamino)-phenyl]-4-oxo-butyric acid [Example 36]
[1]
  pIC50: 4.39
[3]
  pIC50: 4.77

## 4-Hydroxyimino-4-[(4-methyl-benzoyl)amino-phenyl]-butyric acid [Example 2]
[1]
  pIC50: 6.39
[2]
  pIC50: 5.42
[3]
  pIC50: 5.96

## O=C(O)CCC(=O)c1ccc(NC(=O)C=Cc2ccccc2)cc1 [Example 19, 4-[4-(Cinnamoylamino)-phenyl]-4-oxo-butyric acid]
[1]; [4]
  inhibition at 10 µM: 86%
[2]; [4]
  inhibition at 10 µM: 9%
[3]; [4]
  inhibition at 10 µM: 72%

## CCCCOc1ccc(C(=O)Nc2ccc(C(=O)CCC(=O)O)cc2)cc1 [Example 17, 4-[4-(4-Butoxy-benzoylamino)-phenyl]-4-oxo-butyric acid]
[1]; [4]
  inhibition at 10 µM: 97%
[2]; [4]
  inhibition at 10 µM: 65%
[3]; [4]
  inhibition at 10 µM: 78%

## O=C(O)CCC(=O)c1ccc(NC(=O)c2ccc(Br)cc2)cc1 [Example 20, 4-[4-(4-Bromo-benzoylamino)-phenyl]-4-oxo-butyric acid]
[1]; [4]
  inhibition at 10 µM: 93%
[2]; [4]
  inhibition at 10 µM: 30%
[3]; [4]
  inhibition at 10 µM: 81%

## COc1cc(OC)cc(C(=O)Nc2ccc(C(=O)CCC(=O)O)cc2)c1 [Example 24, 4-[4-(3,5-Dimethoxy-benzoylamino)-phenyl]-4-oxo-butyric acid]
[1]; [4]
  inhibition at 10 µM: 15%
[2]; [4]
  inhibition at 10 µM: 0%
[3]; [4]
  inhibition at 10 µM: 4%

## O=C(O)CCC(=O)c1ccc(NC(=O)c2cccc(F)c2)cc1 [Example 4, 4-[4-(3-Fluoro-benzoylamino)-phenyl]-4-oxo-butyric acid]
other
  melting point: 239 to 241 °C
[1]
  pIC50: 5.72
[3]
  pIC50: 5.21

## O=C(O)CCC(=O)c1ccc(NC(=O)c2ccccc2F)cc1 [Example 5, 4-[4-(2-Fluoro-benzoylamino)-phenyl]-4-oxo-butyric acid]
other
  melting point: 191 to 193 °C
[1]
  pIC50: 5.72
[3]
  pIC50: 5.01

## O=C(O)CCC(=O)c1ccc(NC(=O)c2ccc([N+](=O)[O-])cc2)cc1 [Example 29, 4-[4-(4-Nitro-benzoylamino)-phenyl]-4-oxo-butyric acid]
[1]
  pIC50: 6.34
[2]
  pIC50: 4.40
[3]
  pIC50: 5.62

## O=C(O)CCC(=O)c1ccc(NC(=O)c2ccc(Cl)cc2Cl)cc1 [Example 13, 4-[4-(2,4-Dichloro-benzoylamino)-phenyl]-4-oxo-butyric acid]
[1]; [4]
  inhibition at 10 µM: 26%
[2]; [4]
  inhibition at 10 µM: 0%
[3]; [4]
  inhibition at 10 µM: 11%
